This note sets out measurements from PubChem BioAssay (NCI).

Test systems include KM12 colon; COLO 205 colon; UACC-62 melanoma; HOP-62 NSCLC; U251 CNS; OVCAR-3 ovarian; 786-0 renal; EKVX NSCLC; SK-MEL-2 melanoma; NCI-H23 lung; SF-539 CNS; HCC-2998 colon; CCRF-CEM leukemia; UACC-257 melanoma; PC-3 prostate.
What all share (test): inhibition of tumour cell growth, NCI panel, 48 h

Each structure is given as a SMILES string.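 Compound exposure: 48 hours, 5 concentrations, 96-well plates. Definition used: TGI = concentration required for complete inhibition of growth.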

In the case of `COC(=O)C(=Cc1cc(OC)c(OC)c(OC)c1-c1cc2c(cc1C(C)=O)OCO2)C(=O)OC`, the TGI was 70.4 µM with KM12 colon; 66.8 µM in the experiment on COLO 205 colon; 73.8 µM with UACC-62 melanoma; 67.1 µM with HOP-62 NSCLC; 66.4 µM in the experiment with U251 CNS; 56.2 µM with OVCAR-3 ovarian. Besides, the TGI in the experiment on 786-0 renal was 61.6 µM; in the experiment on EKVX NSCLC, greater than 211 µM; in the experiment on SK-MEL-2 melanoma, 61.7 µM; with NCI-H23 lung it was 75.9 µM; with SF-539 CNS it was 88.2 µM; with HCC-2998 colon, 70.4 µM. Besides, the values for the TGI with CCRF-CEM leukemia and in the experiment with UACC-257 melanoma were greater than 211 µM and 188 µM, respectively.

Regarding `C/C(=C1/CCC/C(=C(/C)c2ccccc2)C1=O)c1ccccc1`, the TGI with KM12 colon is greater than 100 µM; with COLO 205 colon, greater than 100 µM; in the experiment on UACC-62 melanoma, greater than 100 µM; with U251 CNS, 74.2 µM; in the experiment with OVCAR-3 ovarian, greater than 100 µM; in the experiment with 786-0 renal, greater than 100 µM. In addition, the TGI in the experiment on EKVX NSCLC is greater than 100 µM; with SK-MEL-2 melanoma, 38.7 µM; in the experiment on NCI-H23 lung, greater than 100 µM; in the experiment on SF-539 CNS it was greater than 100 µM; in the experiment with HCC-2998 colon, greater than 100 µM; with CCRF-CEM leukemia, 49.8 µM. The molecule also had a TGI in the experiment on UACC-257 melanoma of 74.9 µM.

Take `Cc1ccc(-c2c3nc(c(-c4ccc(C)cc4)c4ccc([nH]4)c(-c4ccc(OCC5COC(C)(C)O5)cc4)c4nc(c(-c5ccc(C)cc5)c5ccc2[nH]5)C=C4)C=C3)cc1` (stereo unspecified): the TGI in the experiment with KM12 colon, in the experiment on COLO 205 colon, in the experiment with HOP-62 NSCLC, in the experiment on U251 CNS, in the experiment on OVCAR-3 ovarian and with 786-0 renal was greater than 31.6 µM in each case. Also, the TGI in the experiment on EKVX NSCLC, in the experiment on SK-MEL-2 melanoma, with NCI-H23 lung, with SF-539 CNS, in the experiment on HCC-2998 colon and in the experiment on UACC-257 melanoma was greater than 31.6 µM throughout.

In the case of `CN(C)CCCN1c2ccccc2Sc2cnccc21`, the TGI in the experiment on KM12 colon, in the experiment with COLO 205 colon, in the experiment with UACC-62 melanoma, with HOP-62 NSCLC, with U251 CNS and with OVCAR-3 ovarian was greater than 100 µM throughout. Moreover, the TGI with 786-0 renal was greater than 100 µM; in the experiment with PC-3 prostate, greater than 100 µM; in the experiment on EKVX NSCLC it was greater than 100 µM; in the experiment with SK-MEL-2 melanoma, 94 µM; in the experiment with SF-539 CNS, greater than 100 µM; with CCRF-CEM leukemia it was greater than 100 µM. Besides, the TGI in the experiment with UACC-257 melanoma came out at 49.5 µM.

In the case of `NC(=S)Nc1ccc(S(=O)(=O)Nc2ccc(S(N)(=O)=O)cc2)cc1`, the TGI in the experiment with KM12 colon, with COLO 205 colon, with UACC-62 melanoma, with HOP-62 NSCLC, with U251 CNS and in the experiment on OVCAR-3 ovarian was greater than 100 µM each time. Further, the TGI with 786-0 renal, in the experiment on PC-3 prostate, in the experiment with EKVX NSCLC, with SK-MEL-2 melanoma, in the experiment on NCI-H23 lung and with CCRF-CEM leukemia was greater than 100 µM each time. In addition, the TGI with UACC-257 melanoma was greater than 100 µM.

In the case of `COc1ccc(-c2cc(=O)c3ccccc3[nH]2)c(OC)c1`, the TGI in the experiment with KM12 colon, in the experiment on COLO 205 colon, with UACC-62 melanoma, with HOP-62 NSCLC, in the experiment with U251 CNS and with OVCAR-3 ovarian was greater than 100 µM in each case. Besides, the TGI in the experiment on 786-0 renal, in the experiment with EKVX NSCLC, with NCI-H23 lung, with SF-539 CNS, with CCRF-CEM leukemia and with UACC-257 melanoma was greater than 100 µM in each case.

With `Cc1ccc(S(=O)(=O)OC(c2ccc(Cl)cc2Cl)C2OC(=O)c3ccccc32)cc1` (stereo unspecified), the TGI with KM12 colon, in the experiment with COLO 205 colon, with UACC-62 melanoma, with HOP-62 NSCLC, with U251 CNS and in the experiment on OVCAR-3 ovarian was greater than 100 µM in each case. Moreover, the TGI in the experiment with 786-0 renal, with EKVX NSCLC, in the experiment on SK-MEL-2 melanoma, with NCI-H23 lung, in the experiment with SF-539 CNS and in the experiment on CCRF-CEM leukemia was greater than 100 µM throughout.

Consider `N#Cc1c(-c2ccccc2)cc(Nc2cccc(C(F)(F)F)c2)n2c1nc1ccccc12`, for which the TGI turned out to be 30.5 µM in the experiment on KM12 colon; 2.39 µM in the experiment with COLO 205 colon; 9.81 µM in the experiment with HOP-62 NSCLC; 10.3 µM in the experiment with U251 CNS; 5.58 µM in the experiment on OVCAR-3 ovarian; 6.57 µM in the experiment with 786-0 renal. Also, the TGI in the experiment on EKVX NSCLC amounted to 10 µM; in the experiment with NCI-H23 lung it was 3.63 µM; in the experiment on SF-539 CNS, 5.06 µM; with UACC-257 melanoma it was 9.76 µM.

Consider `CCOC(=O)C(Cc1cn(S(=O)(=O)c2ccccc2)c2ccccc12)(NC(C)=O)C(=O)OCC`, for which the TGI with KM12 colon was greater than 100 µM; in the experiment on COLO 205 colon, 60.8 µM; in the experiment with UACC-62 melanoma, greater than 100 µM; in the experiment with HOP-62 NSCLC, greater than 100 µM; in the experiment on U251 CNS, greater than 100 µM; with OVCAR-3 ovarian, greater than 100 µM. Further, the TGI is greater than 100 µM in the experiment on 786-0 renal; 80.3 µM in the experiment on SK-MEL-2 melanoma; greater than 100 µM in the experiment on NCI-H23 lung; greater than 100 µM with SF-539 CNS; greater than 100 µM in the experiment with HCC-2998 colon; 72 µM in the experiment on CCRF-CEM leukemia. Moreover, the TGI in the experiment on UACC-257 melanoma was found to be 88.2 µM.

Turning to `CSC1=N/C(=C\c2ccccc2)C(=O)N1CN1CCCCC1`, the TGI with KM12 colon, in the experiment on COLO 205 colon, with UACC-62 melanoma, in the experiment on HOP-62 NSCLC, in the experiment on U251 CNS and in the experiment with OVCAR-3 ovarian was greater than 100 µM in each case. Also, the TGI in the experiment with 786-0 renal, with PC-3 prostate, in the experiment on EKVX NSCLC, in the experiment with SK-MEL-2 melanoma, in the experiment with NCI-H23 lung and with CCRF-CEM leukemia was greater than 100 µM in each case.

With `COc1cccc(/C=C2\C(=O)N(C(=O)c3ccc(NC(C)=O)cc3)N=C2C)c1`, the TGI in the experiment on COLO 205 colon, with HOP-62 NSCLC, with U251 CNS, in the experiment on OVCAR-3 ovarian, with 786-0 renal and with EKVX NSCLC was greater than 100 µM throughout. Moreover, the TGI with SK-MEL-2 melanoma, in the experiment on NCI-H23 lung, with SF-539 CNS, in the experiment with HCC-2998 colon, with CCRF-CEM leukemia and in the experiment with UACC-257 melanoma was greater than 100 µM in each case.

Take `CCO/N=C(/N)c1ncn(Cc2ccccc2)c1NCC(OCC)OCC`: the TGI with KM12 colon, in the experiment on COLO 205 colon, with UACC-62 melanoma, in the experiment with HOP-62 NSCLC, in the experiment with U251 CNS and with OVCAR-3 ovarian was greater than 100 µM throughout. For the same molecule, the TGI in the experiment with 786-0 renal, in the experiment on EKVX NSCLC, with SK-MEL-2 melanoma, in the experiment on SF-539 CNS, in the experiment with HCC-2998 colon and in the experiment with CCRF-CEM leukemia was greater than 100 µM in each case. Also, the TGI with UACC-257 melanoma was greater than 100 µM.

For `COc1ccc(C2C3=C(Nc4ncnn42)c2ccccc2OC3c2ccccc2)cc1` (stereo unspecified), the TGI in the experiment with KM12 colon is 76.5 µM; with COLO 205 colon, greater than 100 µM; with UACC-62 melanoma it was greater than 100 µM; in the experiment on HOP-62 NSCLC, greater than 100 µM; with U251 CNS, greater than 100 µM; in the experiment with OVCAR-3 ovarian, greater than 100 µM. Further, the TGI in the experiment on 786-0 renal is greater than 100 µM; in the experiment with PC-3 prostate, greater than 100 µM; in the experiment on SK-MEL-2 melanoma, 53.9 µM; in the experiment on NCI-H23 lung, greater than 100 µM; in the experiment on SF-539 CNS, greater than 100 µM; with UACC-257 melanoma it was greater than 100 µM.

On to `CC(C)N1CN(C(C(=O)N[C@@H]2C(=O)N3C2SC(C)(C)C3C(=O)O)c2ccccc2)CSC1=S` (stereo partly specified), for which the TGI in the experiment with KM12 colon, with COLO 205 colon, with UACC-62 melanoma, in the experiment with HOP-62 NSCLC, with U251 CNS and in the experiment on OVCAR-3 ovarian was greater than 100 µM in each case. Also, the TGI in the experiment on 786-0 renal, in the experiment on EKVX NSCLC, in the experiment on SK-MEL-2 melanoma, in the experiment on NCI-H23 lung, with SF-539 CNS and in the experiment with CCRF-CEM leukemia was greater than 100 µM in each case. In the experiment on UACC-257 melanoma, this molecule had a TGI greater than 100 µM.

In the case of `CN1C2CCC1CC(CCNC(c1ccccc1)c1ccccc1)C2` (stereo unspecified), the TGI in the experiment with KM12 colon is greater than 100 µM; in the experiment with COLO 205 colon it was 23.6 µM; in the experiment with HOP-62 NSCLC, 50.9 µM; in the experiment with U251 CNS, greater than 100 µM; in the experiment on OVCAR-3 ovarian, greater than 100 µM; with 786-0 renal, 41.4 µM. The TGI with PC-3 prostate was greater than 100 µM; in the experiment with EKVX NSCLC, greater than 100 µM; with SK-MEL-2 melanoma, 31.4 µM; in the experiment with NCI-H23 lung, greater than 100 µM; in the experiment with SF-539 CNS, 35.7 µM; with CCRF-CEM leukemia, greater than 100 µM. The same molecule came in with a TGI with UACC-257 melanoma of 31.8 µM.

Take `O=C1NC2OCC(O)C(O)C2O1` (stereo unspecified): the TGI with KM12 colon, in the experiment with COLO 205 colon, in the experiment on UACC-62 melanoma, in the experiment with HOP-62 NSCLC, with U251 CNS and in the experiment with OVCAR-3 ovarian was greater than 100 µM throughout. Further, the TGI in the experiment on 786-0 renal, with EKVX NSCLC, in the experiment on SK-MEL-2 melanoma, with NCI-H23 lung, with SF-539 CNS and in the experiment on HCC-2998 colon was greater than 100 µM throughout. Further, the TGI in the experiment with CCRF-CEM leukemia and with UACC-257 melanoma was greater than 100 µM throughout.
